This note sets out measurements from US6303596A, “Use of taurolidine for treatment of leukemias” (priority 2000, dated 2001).

Structures are written as SMILES.

Holding throughout (type): cell-based, human
One assay concerns Lymphocytes. The experiment in a line: tissue or blood. Conditions: for induction of apoptosis in lymphocytes: whole blood. On the procedure: (§1) FIGS. 15A, 15B, and 15C depict TUNEL analysis of PBMC treated with taurolidine in whole blood, for control cells, taurolidine-treated cells, and anisomycin-treated cells, respectively . Cells were incubated with 500 μg/ml taurolidine for 4 hours, resuspended in fresh medium, incubated for two hours further and processed for TUNEL analysis. Parallel samples were stained with FITC-conjugated anti-CD14 and PI as described herein. Ten thousand events were recorded per sample. TUNEL signal (x -axis) is a measure of DNA fragmentation, while FSC (y-axis) is related to cell size. TUNEL-negative lymphocytes are bounded by rectangle R 1, while TUNEL-negative monocytes (CD 14 positive cells) are bounded by rectangle R2. R3 bounds the TUNEL-positive population of cells. There were minimal numbers of PI-positive cells in 6 hour samples (see Table VI).
(§2) In the second method, DNA fragmentation was detected via TUNEL assay according to the manufacturer's instructions. With this methodology, 2×10^6 cells were fixed with 2% paraformaldehyde, permeabilized with 0.1% Triton X-100/0.1% citrate, incubated at 37° C. with terminal deoxynucleotidyl transferase and FITC-dUTP, rinsed and analyzed by flow cytometry. Enhanced FITC signal indicates apoptosis-specific DNA fragmentation. Gavriali, et al, "Identification of programmed cell death in situ via specific labeling of nuclear DNA fragmentation," J Cell Biol 119:493 (1992). Parallel aliquots of unfixed cells were treated with PI and FITC-conjugated anti-CD14 and analyzed by flow cytometry, in order to identify cells with permeable cell membranes (since PI binds to DNA but is excluded from cells with intact plasma membranes) and also to determine the cell-specificity of the apoptotic signal.
(§3) Taurolidine at 100 μg/ml induced apoptosis of approximately 75% of purified peripheral blood monocytes when these cells were incubated in culture medium. However, in order to more closely mimic the milieu of leukocytes in vivo, induction of apoptosis in PBMC by taurolidine was studied in whole blood (anticoagulated with heparin). As before, apoptosis was quantitated by measuring the loss of monocytes from a TUTNEL-negative (no DNA fragmentation), CD 14 positive population of cells which was concomitant with the appearance of a TUNEL-positive population of cells. Treatment of PBMC in whole blood resulted
(§4) in a shift of the taurolidine dose-response curve. […] As a positive control for induction of apoptosis, some cells were treated with anisomycin, a protein synthesis inhibitor known to induce apoptosis in monocytes.
(§5) ^a Analysis by flow cytometry after staining cells with PI and
(§6) processing for TUNEL. Data are mean ± SD of 2 experiments.
(§7) ^b Percent of cells present in the TUNEL-negative region in control

The test system of a further assay is Monocytes. Description: tissue or blood. As for the experimental part:
as §1, §2, §3, §4, §5, §6, §7

A further assay has as its system MM6. Description: TUNEL / propidium iodide flow cytometry, MM6. As to conditions: for % TUNEL-positive: MM6, taurolidine 100 μg/ml or anisomycin 1 μg/ml for 4 h, assayed at 6 hours, mean ± SD. On the procedure:
as §2
Consequently, TUNEL analysis was performed on PBMC at 3, 6, or 24 hours after treatment with 25 to 100 μg/ml taurolidine. Aliquots of harvested cells were also labeled with FITC-conjugated anti-CD14 antibodies and PI, which allowed identification of monocytes (CD14-positive cells) and cells with damaged cell membranes (PI-positive cells). […] Thus, nearly 75% of the monocytes were TUNEL-positive following treatment with 100 μg/ml taurolidine for six hours. Confirmation that the TUNEL-positive cells were monocytes was obtained by staining with FITC-conjugated anti-CD14.
(§8) In another study, TUNEL assays were performed on all cell lines 6 hours after cells were initially exposed to taurolidine (cells were treated for 4 hours, rinsed, and then incubated for 2 more hours before TUNEL assay was performed).
. Taurolidine and anisomycin induced apoptosis in MM6, HL-60, and Jurkat cells (Table VIII). MM6 and HL-60 cells were similarly effected, with >80% TUNEL-positive cells after 6 hours. Jurkat cells were less sensitive, with approximately 50% of cells induced to undergo apoptosis after taurolidine treatment. After 6 hours, 73% of anisomycin-treated REH cells were apoptotic, with less than 20% of taurolidine-treated REH cells being TUNEL-positive. However, assay of cells 24 hours after
^a Analysis by flow cytometry after staining cells with propidium
iodide and processing for TUNEL.
Data are percent of total cell-size events, and are expressed as mean ±
Cells were treated for 4 hours with taurolidine (100 μg/ml) or
anisomycin (1 μg/ml), and then assayed at 6 hours.
On the technique in general: A flow cytometer gives signals particle by particle.

In a further assay the test system is all cells tested. Description: apoptogenic efficiency in all cells tested. On the procedure: as §8
. Taurolidine and anisomycin induced apoptosis in MM6, HL-60, and Jurkat cells (Table VIII). MM6 and HL-60 cells were similarly effected, with >80% TUNEL-positive cells after 6 hours. Jurkat cells were less sensitive, with approximately 50% of cells induced to undergo apoptosis after taurolidine treatment. After 6 hours, 73% of anisomycin-treated REH cells were apoptotic, with less than 20% of taurolidine-treated REH cells being TUNEL-positive. However, assay of cells 24 hours after […]

Setting [1] is: Homo sapiens, Lymphocyte, 6 h, read-out: % TUNEL-negative.
[2] abbreviates: Homo sapiens, Monocyte, 6 h, read-out: % TUNEL-negative.

On to `O=S1(=O)CCN(CN2CCS(=O)(=O)NC2)CN1` [taurolidine, 4,4'-methylenebis(perhydro-1,2,4-thiadiazin 1,1-dioxide)], for which the viability at 200 µg/mL is 92.7 ± 6% in the assay with Lymphocytes (setting [1]) and 117 ± 11.2% with Monocytes (setting [2]). For the same compound, the values for the viability at 500 µg/mL in the assay with Lymphocytes (setting [1]) and in the assay on Monocytes (setting [2]) were 91.8 ± 6.9% and 27.9 ± 12%, respectively. In addition, the entries for the “induction of apoptosis in lymphocytes” value in the assay with Lymphocytes and in the assay with Lymphocytes (taurolidine up to 500 μg/ml) were “no evidence for a significant effect” and “does not induce a significant amount of apoptosis”, respectively. In addition, in the assay with Monocytes (Homo sapiens, Monocyte, read-out: loss of TUNEL-negative monocytes), the cytotoxicity at 500 µg/mL was 70%. In the assay on Monocytes (up to 200 μg/ml taurolidine), the “induction of apoptosis in whole blood” value is listed as “did not induce significant apoptosis”. The “effective concentration in whole blood relative to culture medium” value in the assay with Monocytes (whole blood versus purified PBMC in culture medium) turned out to be 5 times. The cytotoxicity at 50 µg/mL with MM6 (Homo sapiens, MONO-MAC-6, 3 h, read-out: % Propidium Iodide Positive Cells) was found to be 7%. Also, the “% TUNEL-positive” value with MM6 is 80.9 ± 7.7%; with MM6 (listed as Taurolidine), above 80%. The “onset of apoptosis after treatment” value in the assay on MM6 (MM6 cells) is recorded as “detectable within four to six hours”. In addition, the “% TUNEL-Negative Cells” value with MM6 (Mono Mac 6, 50 μg/ml, 3 hours) is reported as 44%. In the assay on all cells tested, the “apoptogenic efficiency versus anisomycin” value is recorded as “as efficient an apoptogenic agent as the protein synthesis inhibitor anisomycin”.
